Results published in patent US8889615B2, “Methods for promoting epithelialization and healing of chronic wounds” (New York University, priority 2009, dated 2014).
“Also recorded” adds a separate entry of the source.

What was measured:
β-catenin = β-catenin nuclearization in primary human epidermal keratinocytes (immunostaining, β-catenin y142); assay type: cell-based; details: 0.1 μmol/L dexamethasone; 200 nM Calphostin C or 10 μM RU486
Method: Topical GC treatment of human skin cepsimens was performed by daily applica-tion of Cormax (Clobetasol Propionate Cream 0.05%; Oclassen Pharmaceuticals, Inc.) using a sterile Q-tip applicator. Samples were fixed in formalin and processed for paraffin embedding following by sectioning to obtain 5-μm-thick sections. Keratinocytes were grown on chamber slides to 70% confluency (Lab-Tek, Naperville, Ill.) and treated with 0.1 μmol/L dexamethasone (Sigma) and incubated in the presence or absence of 200 nM Calphostin C or 10 μM RU486. Cells were fixed in 70% methanol for 10 minutes and permeabilized with 0.1% Triton X-100 for 10 minutes. Human tissues were stained with β-catenin antibody β-catenin phosphorylated Ab (Tyr- 142) (AbCam) at 1:1500 dilution in 5% bovine serum albumin and visualized using a secondary fluorescein isothiocyanate anti-mouse IgG antibody 1:150 (Sigma). All sections were mounted with mounting media. All negative controls were prepared by substitution of the primary antibody with an irrelevant antibody. The sections were analyzed using a Carl Zeiss microscope (Carl Zeiss, Thornwood, N.Y.) and digital images were collected using Adobe TWAIN—32 program.

protein kinase C = details: cited from earlier work
c-myc = c-myc Western blot in HEK; assay type: cell-based, human; details: DEX 1 μM with Calphostine C or RU486 10 μM, 4 hours
Method: Extracts for immunoblotting were prepared from a subconfluent 100 mm plate of normal HEK treated with DEX (1 μM), Calphostine C and RU486 (10 μM) or an equal volume of ethanol vehicle 4 hours prior to lysis. Cells were placed on ice; washed twice with phosphate-buffer saline (PBS); and lysed in 0.5 ml of modified RIPA buffer containing 50 mM Hepes, pH 7.5, 150 mM NaCl, 1 mM EDTA, 1 mM EGTA, 1 mM NaF, 1% Triton X-100, 10% glycerol, and additional protease and phosphatase inhibitors (1 mM phenylmethylsulfonyl fluoride, 20 mM glycerophosphate, 8 mM sodium pyrophosphate, 1 μg/ml leupeptin, 1 μg/ml pepstatin A, and 1 μg/ml aprotinin (Roche, Indianapolis, Ind.)) through fine needle aspiration. Lysates were centrifuged at 13,000 rpm for 10 min at 4° C. The soluble supernatants were normalized for total protein concentration using the Bradford protein assay, and the samples were stored at −20° C. Cell extracts were boiled for 5 minutes in Leammli sample buffer, were separated by 10% SDS-PAGE and transferred to nitrocellulose membrane (VWR, Batavia, Ill.) on 100 V for 1 hour in Tris/glycine transfer buffer. […] Western blot quantification was done using Total Lab Program (Non-linear dynamics Inc., NC).

[1] = system: LEF/TCF-mediated transcription; assay: SuperTopFlash Tcf/Lef luciferase reporter assay in primary human keratinocytes; assay type: cell-based; details: 24 hours; for dexamethasone-mediated induction of LEF/TCF-mediated transcription: Dexamethasone 1 μM with RU486 10 μM or Calphostine C 200 nM
Method: Primary human keratinocytes were plated into 6-well plates and grown to 70% confluence in defined serum-free keratinocyte medium supplemented with epidermal growth factor and bovine pituitary extract (keratinocyte-SFM, GIBCO). Prior to transfection cells were transferred to basal serum—free medium (GIBCO) for 6 h, and then transfected with Tcf/Lef transcriptional activation reporter construct SuperTopFlash (Masckauchán, Mol. Biol. Cell, 17(12):5163-5172 (2006)) containing Tcf responsive elements and renilla-luciferase construct. Transfections were performed in triplicates using 3 μg of reporter plasmid, 0.2 μg of renilla-luciferase plasmid with a FuGene 6 transfection reagent (Roche), following manufacturer's instructions for procedure. Cells were incubated at 37° C. for over night with transfection cocktail and than treated with Dexamethasone (1 μM), RU486 (10 μM) and Calphostine C (200 nM) for 24 hours. Cell lysates were prepared the next day and both firefly and renilla luciferase activities were evaluated using Dual-Luciferase Reporter Assay System (Promega, Madison, Wis.). Samples were read in a luminometer and values were normalized for transfection efficiency using renilla-luciferase activity.

wounded human skin [2] = assay: Human skin wound model, topical treatment, epithelialization by planimetry; assay type: cell-based; details: topical DEX 1 μM + Calphostine C 200 μM, 6 days
Method: Wounds were created using 4-mm punch biopsies through the reticular dermis and incubated on the air-liquid interface, as previously described. Immediately upon wounding cells were treated topically with dexamethasone (DEX) (1 μM), Calphostine C (CC) (200 μM) and the combination, DEX+CC and maintained on the air-liquid interface for 6 days. All specimens were frozen in OCT compound (Tissue Tek, Reading; Calif.) for immunocytochemistry. Wounds were quantified by planimetry as described previously (Tomic-Canic, et al., Wound Repair Regen., 15(1):71-9 (2007)).

[3] = system: Ca^2+-independent PKC d-, e-, and z-isozymes; details: even at micromolar levels; cited from earlier work
GSK3β = assay: Phospho-GSK3β (Ser 9) Western blot in keratinocytes; assay type: cell-based, human; details: DEX 1 μM with GO6979 400 μM, RU486 10 μM or U73122 10 μM
Method: Extracts for immunoblotting were prepared from a subconfluent 100 mm plate of normal HEK treated with DEX (1 μM), Calphostine C and RU486 (10 μM) or an equal volume of ethanol vehicle 4 hours prior to lysis. Cells were placed on ice; washed twice with phosphate-buffer saline (PBS); and lysed in 0.5 ml of modified RIPA buffer containing 50 mM Hepes, pH 7.5, 150 mM NaCl, 1 mM EDTA, 1 mM EGTA, 1 mM NaF, 1% Triton X-100, 10% glycerol, and additional protease and phosphatase inhibitors (1 mM phenylmethylsulfonyl fluoride, 20 mM glycerophosphate, 8 mM sodium pyrophosphate, 1 μg/ml leupeptin, 1 μg/ml pepstatin A, and 1 μg/ml aprotinin (Roche, Indianapolis, Ind.)) through fine needle aspiration. Lysates were centrifuged at 13,000 rpm for 10 min at 4° C. The soluble supernatants were normalized for total protein concentration using the Bradford protein assay, and the samples were stored at −20° C. Cell extracts were boiled for 5 minutes in Leammli sample buffer, were separated by 10% SDS-PAGE and transferred to nitrocellulose membrane (VWR, Batavia, Ill.) on 100 V for 1 hour in Tris/glycine transfer buffer. The membranes were blocked for 30 minutes in 5% bovine serum albumin in blocking solution (Tris-buffered saline (TBS, pH 7.4) at room temperature and then incubated in blocking solution with primary antibody at 4° C. overnight using 1:500 of serum for anti-c-myc antibody (Santa Cruz). The membranes were washed three times for 5 minutes with TBS and 0.1% Triton X-100 and twice with TBS and incubated for 1 hour at room temperature with horseradish peroxidase-conjugated secondary antibody (Santa Cruz, Calif.). Blots were then washed three times for 5 minutes with TBS and 0.1% Triton X-100 and developed using Super Signal West Pico Chemiluminescent substrate (Pierce, Rockford, Ill.) and exposed on x-ray film (Eastman Kodak Co. Bio Max MR-Film) according to the manufacturer's instructions. For loading control we used anti b-tubulin antibody (Santa Cruz, Santa Cruz, Calif.). Western blot quantification was done using Total Lab Program (Non-linear dynamics Inc., NC). […]

protein kinase C (PKC) = details: rat brain; cited from earlier work
wounded human skin [4] = assay: Human skin ex vivo wound model with LiCl; assay type: cell-based; details: 4 mm punch wound, air-liquid interface, 20 mmol/L LiCl, 4 days
From the text: Wounds were created using 4-mm punch biopsies through the reticular dermis and a rim of cells participating in wound healing was collected by re-punching around the initial wounded area. Each time point was collected in parallel with an unwounded skin specimen of the same donor. All specimens were collected and either stored in RNAlater (Ambion, Austin, Tex.) or frozen in OCT compound (Tissue Tek, Reading, Calif.) for immunocytochemistry. To activate β-catenin, wounded skin was maintained on the air-liquid interface in the presence or absence of 20 mmol/L LiCl (Shimm, et al., J. Biol. Chem., 278:19674-19681 (2003)). Wounds were quantified by planimetry as described previously (Stojadinovic, et al., Am. J. Pathol., 167(1):59-69 (2005)).

[5] = system: Primary human keratinocytes; assay: Keratinocyte migration, wound scratch assay; assay type: cell-based
Method: Primary human keratinocytes were grown to 80% confluency. Twenty-four hours before the experiment cells were transferred to basal KBM medium (Life Technologies, Inc., Grand Island, N.Y.). Before the scratch, cells were treated with 8 μg/ml mitomycin C (ICN, Irvine, Calif.) for 1 hour and washed with basal media. Scratches were performed as previously described (Lee, et al., J Mol. Biol., 345:1083-1097 (2005)). Cells were incubated with 20 μmol/L LiCl or 25 ng/ml of EGF for 24 and 48 hours, rephotographed, and cell migration was quantified as previously described (Lee, et al., J. Mol. Biol., 345:1083-1097 (2005); Zavadil. et al., EMBO J., 23:1155-1165 (2004)). Thirty measurements were taken for each experimental condition and distance coverage by cells moving into the scratch wound area was quantified. Three images were analyzed per condition, per time point, and averages and standard deviations were calculated.

PLC = details: human platelets and neutrophils; read-out: IC50, agonist-induced PLC activation; cited from earlier work

SMILES	GC-mediated nuclearization (activation) of β-catenin (β-catenin)	GCs-mediated c-myc activation (c-myc)	dexamethasone-mediated induction of LEF/TCF-mediated transcription [1]	dexamethasone-mediated phosphorylation of GSK3β (GSK3β)	further results
COc1c(CC(C)OC(=O)Oc2ccc(O)cc2)c2c3c(CC(C)OC(=O)c4ccccc4)c(OC)c(=O)c4c(O)cc(OC)c(c5c(OC)cc(O)c(c1=O)c52)c43 (stereo not drawn) [Calphostin C]	blocked	blocked	blocked	–	IC50 (protein kinase C): 50 nM; dexamethasone-mediated inhibition of epithelialization (wounded human skin [2]): rescues
Cn1c2ccccc2c2c3c(c4c5ccccc5n(CCC#N)c4c21)CNC3=O [Go 6976, 12-(2-Cyanoethyl)-6,7,12,13-tetrahydro-13-methyl-5-oxo-5H-indolo(2,3-a)pyrrolo(3,4-c)-carbazole]	–	–	–	block	effect on kinase activity of Ca^2+-independent PKC d-, e-, and z-isozymes [3]: does not affect; IC50 (protein kinase C (PKC)): 7.9 nM
[Cl-].[Li+] [LiCl]	–	–	–	–	wound healing (planimetry, histology) (wounded human skin [4]): completely inhibited; LEF/TCF-mediated transcription (TopFlash activity) ([1]; agent alone, Dexamethasone 1 μM): increase activity; keratinocyte migration ([5]; 20 μmol/L LiCl or 25 ng/ml of EGF, 24 and 48 hours): inhibited; EGF-stimulated keratinocyte migration ([5]; LiCl with EGF): efficiently blocked
CC#C[C@]1(O)CC[C@H]2[C@@H]3CCC4=CC(=O)CCC4=C3[C@@H](c3ccc(N(C)C)cc3)C[C@@]21C [RU486, (11b,17b)-11-(4-(Dimethylamino)phenyl)-17-hydroxy-17-(1-propynyl)estra-4,9-dien-3-one]	blocked	blocked	abolished	completely abolished; also recorded: block	–
COc1ccc2c(c1)CCC1C2CC[C@@]2(C)C1CC[C@@H]2NCCCCCCN1C(=O)C=CC1=O (stereo partly drawn) [U-73122]	–	–	–	inhibits	IC50 (PLC): 1000 to 2100 nM
